Laboratory results taken from ChEMBL document CHEMBL1201862, “PubChem BioAssay data set” (2004).
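These data come from cells grown in 96-well plates and exposed to compound for 48 hours at five concentrations. Here, GI50 denotes the concentration required for 50% inhibition of growth.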 Activity calls are given as the source filed them. Cut-off read from the data, not from the text of the source: active = GI50 up to about 1.1 µM and inactive = higher.

Columns and labels:
Assay in all cases: NCI anticancer screen, dose series, 48 h
[1] = tested on: RPMI-8226
[2] = tested on: K562
[3] = tested on: OVCAR-5
[4] = tested on: IGROV-1
[5] = tested on: RXF 393
[6] = tested on: HOP-92
[7] = tested on: Malme-3M
[8] = tested on: SN12C
[9] = tested on: SR
[10] = tested on: SNB-19
[11] = tested on: NCI-H226
[12] = tested on: SK-MEL-5
[13] = tested on: CCRF-CEM
[14] = tested on: KM12
[15] = tested on: OVCAR-8
[16] = tested on: HCT-116
[17] = tested on: UACC-257
[18] = tested on: NCI/ADR-RES
[19] = tested on: MCF7
[20] = tested on: MDA-N

Measured: GI50

CCc1ccccc1N1C(=O)C(=O)C(c2nc3ccccc3s2)C(=O)C1=O
inactive: [1] 72.4 µM | [2] 44.3 µM | [3] > 100 µM | [4] > 100 µM | [5] > 100 µM | [6] > 100 µM | [7] > 100 µM | [8] 63.4 µM | [9] 55 µM | [10] > 100 µM | [11] > 100 µM | [12] 92 µM | [13] 37.6 µM | [14] > 100 µM | [15] 41.8 µM | [16] 48.3 µM | [17] > 100 µM

c1ccc2c(c1)ccc1ncccc12
inactive: [1] > 100 µM | [2] > 100 µM | [3] > 100 µM | [4] > 100 µM | [5] > 100 µM | [6] 44.6 µM | [7] > 100 µM | [8] > 100 µM | [18] > 100 µM | [9] 58.2 µM | [10] 85.7 µM | [19] > 100 µM | [11] > 100 µM | [12] 75.2 µM | [14] > 100 µM | [15] > 100 µM | [16] > 100 µM | [17] > 100 µM

Brc1cccc(Nc2nc(-c3cccs3)nc3ccc(Br)cc23)c1
inactive: [1] 44.9 µM | [2] 38.2 µM | [3] 25.2 µM | [4] 26.7 µM | [6] 19.6 µM | [7] 25.4 µM | [8] 22.7 µM | [18] 30.7 µM | [9] 1.48 µM | [10] 31.1 µM | [19] 14.2 µM | [11] 31.4 µM | [12] 14 µM | [13] 1.51 µM | [14] 18 µM | [15] 47 µM | [16] 30.5 µM | [17] 26.6 µM

COc1cccc(NC(=O)CC(=O)N2N=C(N(CCC#N)c3ccccc3C)CC2c2ccccc2)c1 (configuration not stated)
inactive: [1] > 100 µM | [2] > 100 µM | [3] > 100 µM | [4] > 100 µM | [5] > 100 µM | [6] > 100 µM | [7] > 100 µM | [8] > 100 µM | [9] > 100 µM | [10] > 100 µM | [11] > 100 µM | [12] > 100 µM | [13] > 100 µM | [14] > 100 µM | [15] > 100 µM | [16] > 100 µM | [17] > 100 µM

SC[C@@H]1COC[C@H](CS)S1
inactive: [2] > 100 µM | [20] > 100 µM | [3] > 100 µM | [4] > 100 µM | [8] > 100 µM | [9] > 100 µM | [10] > 100 µM | [19] > 100 µM | [12] > 100 µM | [13] > 100 µM | [14] > 100 µM | [15] > 100 µM | [16] > 100 µM | [17] > 100 µM

CCCCOCc1cc(CN2CCN(C)CC2)c(O)c2ncccc12
inactive: [1] 3.29 µM | [2] 3.26 µM | [3] 24.4 µM | [4] 29.3 µM | [5] 36.6 µM | [6] 55.1 µM | [7] 21.3 µM | [8] 21.9 µM | [9] 3.49 µM | [10] 30.8 µM | [11] 20.8 µM | [12] 4.02 µM | [13] 3.07 µM | [14] 21.1 µM | [15] 17.8 µM | [16] 14.7 µM | [17] 21.1 µM

Cc1cn([C@H]2CN(O)C[C@@H](CO)O2)c(=O)[nH]c1=O
inactive: [1] > 100 µM | [2] > 100 µM | [20] > 100 µM | [3] > 100 µM | [4] > 100 µM | [5] > 100 µM | [8] > 100 µM | [10] > 100 µM | [19] > 100 µM | [11] > 100 µM | [12] > 100 µM | [14] > 100 µM | [15] > 100 µM | [16] > 100 µM | [17] > 100 µM

COC1(OC)C2(Cl)C(Cl)=C(Cl)C1(Cl)C1C=CC=CC12 (configuration not stated)
inactive: [1] 39.7 µM | [2] 51.6 µM | [3] > 100 µM | [4] > 100 µM | [5] 82.4 µM | [6] 40.2 µM | [7] 31.6 µM | [8] 75.3 µM | [9] > 100 µM | [10] > 100 µM | [11] > 100 µM | [12] 53.2 µM | [13] > 10 µM | [14] > 100 µM | [15] > 100 µM | [16] 43.5 µM | [17] > 100 µM

C=C1OC2OC(C)C(NC(=O)OCC(Cl)(Cl)Cl)C(OC(C)=O)C2O1 (configuration not stated)
inactive: [1] > 100 µM | [2] > 100 µM | [3] > 100 µM | [4] > 100 µM | [5] > 100 µM | [6] > 100 µM | [7] > 100 µM | [8] > 100 µM | [18] > 100 µM | [9] > 100 µM | [10] > 100 µM | [19] > 100 µM | [11] 43.6 µM | [12] > 100 µM | [13] > 100 µM | [14] > 100 µM | [15] > 100 µM | [16] > 100 µM | [17] > 100 µM

Cc1cccc2c1Oc1ccccc1C2NC(=O)c1ccc([N+](=O)[O-])cc1 (configuration not stated)
inactive: [1] > 100 µM | [2] > 100 µM | [20] > 100 µM | [3] > 100 µM | [4] > 100 µM | [5] 23.7 µM | [6] > 100 µM | [7] 86.7 µM | [8] 29.3 µM | [18] 79.4 µM | [9] > 100 µM | [10] > 100 µM | [11] 15.6 µM | [12] > 100 µM | [13] > 100 µM | [14] > 100 µM | [15] > 100 µM | [16] > 100 µM | [17] > 100 µM

CC1(C)C(CCO)CC1n1ccc(=O)[nH]c1=O (configuration not stated)
inactive: [2] 10.6 µM | [20] > 100 µM | [3] > 100 µM | [5] > 100 µM | [6] > 100 µM | [8] > 100 µM | [18] > 100 µM | [10] > 100 µM | [19] > 100 µM | [11] > 100 µM | [12] > 100 µM | [13] > 100 µM | [14] > 100 µM | [16] > 100 µM | [17] > 100 µM

COC(=O)c1c(O)ccc2c1c1c(n2C)C(=O)c2ccccc2C1=O
inactive: [1] 4.78 µM | [2] > 100 µM | [3] 85.3 µM | [4] 4 µM | [5] 15.4 µM | [6] 2.28 µM | [7] 42.5 µM | [8] 11.9 µM | [18] 43.7 µM | [9] 16.2 µM | [10] 16.3 µM | [19] 9.18 µM | [11] 9.02 µM | [12] 30.9 µM | [13] 6.37 µM | [14] 57.7 µM | [15] 17.8 µM | [16] 12.2 µM | [17] > 100 µM

COc1ccc2c(c1)CC[C@@H]1[C@@H]2CC[C@]2(C)C(=O)/C(=C/c3cc(OC)c(OC)c(OC)c3)C[C@@H]12
inactive: [1] > 100 µM | [3] 24.4 µM | [5] 29.6 µM | [6] 22.2 µM | [7] 17.8 µM | [18] 15.4 µM | [9] 15.2 µM | [10] 52.6 µM | [19] 42.5 µM | [12] 71.3 µM | [14] 29 µM | [16] 31.6 µM

O=C1C(=c2cc3c(c4ccccc24)=NC24CCCCC2C(c2ccccc2)C=C(c2ccccc2)N34)C(=O)c2ccccc21 (configuration not stated)
inactive: [1] 11.4 µM | [2] 23 µM | [20] 36.9 µM | [3] > 100 µM | [4] 3.08 µM | [5] 18.5 µM | [6] 27.9 µM | [7] 45.1 µM | [8] > 100 µM | [9] 26.4 µM | [10] 45.2 µM | [19] 14.4 µM | [11] 44.3 µM | [12] 26.4 µM | [13] 15.6 µM | [14] 30.4 µM | [15] 50.4 µM | [16] 36.2 µM | [17] > 100 µM

COc1ccc2nc3ccc(OC)cc3c(SCc3ccccc3)c2c1
inactive: [1] 48.8 µM | [2] > 63.2 µM | [3] > 100 µM | [4] > 63.1 µM | [5] > 100 µM | [6] > 100 µM | [7] > 100 µM | [8] > 100 µM | [18] > 100 µM | [9] > 32.9 µM | [10] > 100 µM | [19] > 55.3 µM | [11] > 100 µM | [12] > 100 µM | [13] > 52.7 µM | [14] > 100 µM | [15] > 84.1 µM | [16] > 74 µM | [17] > 92.5 µM

CCC(C(=O)C(=O)C(CC)P1(=O)OC(C)(C)CN1C(C)(C)C)P1(=O)OC(C)(C)CN1C(C)(C)C (configuration not stated)
inactive: [1] 43.6 µM | [2] 31.8 µM | [4] > 100 µM | [5] > 100 µM | [6] 45.9 µM | [8] > 100 µM | [18] > 100 µM | [9] 60.4 µM | [10] > 100 µM | [19] 68.5 µM | [11] > 100 µM | [12] > 100 µM | [13] > 100 µM | [14] > 100 µM | [15] > 100 µM | [16] > 100 µM | [17] > 100 µM
